What was measured:
[1] = test system: choline acetyltransferase (ChAT); assay: choline acetyltransferase (ChAT) activity in rat septal neurons cultured on rat hippocampal astrocyte feeder layer; assay type: cell-based; conditions: for ChAT activity: compound A 10-1000 nM
Procedure: This experiment was done by a method reported by Pharmacology of Neurotrophic Factors, Ann. Rev. Pharmacol. Toxicol., Vol.37, pages 239-267, (1997).
Astrocytes were obtained from the new-born Sprague-Dawley (SD) rat hippocampus by trypsin digestion and cultured in a serum-containing medium in a culture flask. The confluent astrocytes were harvested and seeded on 96 well plates at the density of 5×10^4 cells/well and served as the feeder layer for neurons after halting the overgrowth with 10 μM cytosine arabinoside. Neurons were taken from the septal area of E17 fetal SD rats by trypsin digestion and seeded on the astrocyte feeder layer at the density of 7.5×10^4 cells/well in a serum-free medium. On the next day, the compound was added to the culture with or without 3 ng/ml recombinant human NGF (rhNGF) and cultured further for 7 days. Then cells were lysed with 5 mM Tris-HCl (pH 7.4)/0.1% Triton X-100 and choline acetyltransferase (ChAT) activity was measured radiometrically by the method of Fonnum.

CA1 neurons = assay: 10-min forebrain ischemia (4-vessel occlusion) in rats, number of living CA1 pyramidal cells; assay type: in vivo, rat; conditions: male Wistar rats, 10-min 4 VO; 10 mg/kg orally 1 hr before and 4 hr after ischemia, then once daily for 6 days; counted 7 days after occlusion; P<0.05
Procedure: Male Wistar rats (Japan Clea Inc., Tokyo, Japan) aged 9 weeks were used. Rats were subjected to 10-min forebrain ischemia using a method reported by Pulsinelli W. A. and Brierley J. B., Stroke, Vol.10, pages 267-272, (1979). Compound A (10 mg/kg) was orally administered 1 hr before and 4 hr after the ischemic operation, and from the next day, it was administered once daily for 6 days.
Rats were sacrificed 7 days after occlusion for histopathological observation. Under deep pentobarbital anesthesia, rats were perfused transcardially with physiological saline solution. The brains were removed, soaked in FAM (formaline:acetic acid:methanol=1:1:8) solution, and embedded in paraffin. Serial coronal sections (6 μm) were cut at the level of the anterior hippocampus, approximately 3.8-4.3 mm posterior to the bregma and stained with hematoxilin and eosin. The number of living pyramidal cells per 250 μm length of CA1 sector were counted under a light microscope. The average of the right and left neuronal densities were defined as the neuronal density for each rat.
Group differences in the number of CA1 pyramidal cells were analyzed using Student t-tests.

[2] = in the presence of 3 ng/ml rhNGF, cultured 7 days (FIG. 2)
[3] = without rhNGF, cultured 7 days, rat septal neurons on astrocyte feeder layer (FIG. 1)

Compound	low concentration from which neurotrophic action is shown ([1]; ChAT activity in rat septal neurons, with or without rhNGF) [nm]	ChAT activity [1, 2]	ChAT activity [1, 3]	number of CA1 pyramidal cells (survival of CA1 neurons) versus vehicle-treated 4 VO control (CA1 neurons)
O=C(CCC1CCN(Cc2ccccc2)CC1)c1ccc2c(c1)NCCCC2.O=C(O)/C=C/C(=O)O [compound A, 3-[1-(phenylmethyl)-4-piperidinyl]-1-(2,3,4,5-tetrahydro-1H-1-benzazepin-8-yl)-1-propanone fumarate]	10	markedly elevated ChAT activity	apparently increased ChAT activity	significantly greater than that of the vehicle-control
Nc1c2c(nc3ccccc13)CCCC2 [tacrine, reference compound]		did not affect ChAT activity	did not affect ChAT activity	

Source: patent US6500820B1, “Pharmaceutical composition for neurotrophic action” (priority 1998, dated 2002)
